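Protocol summary: plate cells (96-well), add compound at 5 concentrations, incubate 48 h, interpolate endpoints linearly. GI50 is the concentration that inhibits growth by half. At the TGI there is no net growth.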
Tests used:
Experiment in all cases: DTP human tumour cell line panel, 48 h
[1] = test system: 786-0 renal
[2] = test system: A498 renal
[3] = test system: A549 NSCLC
[4] = test system: ACHN renal
[5] = test system: BT-549 breast
[6] = test system: CAKI-1 renal
[7] = test system: CCRF-CEM leukemia
[8] = test system: COLO 205 colon
[9] = test system: DU-145 prostate
[10] = test system: HCC-2998 colon
[11] = test system: HCT-116 colon
[12] = test system: HCT-15 colon
[13] = test system: HL-60(TB) leukemia
[14] = test system: HOP-62 NSCLC
[15] = test system: HOP-92 NSCLC
[16] = test system: HS 578T breast
[17] = test system: HT29 colon
[18] = test system: IGROV1 ovarian
[19] = test system: K-562 leukemia
[20] = test system: KM12 colon
[21] = test system: LOX IMVI melanoma
[22] = test system: M14 melanoma
[23] = test system: MALME-3M melanoma
[24] = test system: MCF7 breast
[25] = test system: MDA-MB-231 breast
[26] = test system: MDA-MB-435
[27] = test system: MOLT-4 leukemia
[28] = test system: NCI-H226 lung
[29] = test system: NCI-H23 lung
[30] = test system: NCI-H460 lung
[31] = test system: NCI-H522 lung
[32] = test system: NCI/ADR-RES ovarian
[33] = test system: OVCAR-3 ovarian
[34] = test system: OVCAR-4 ovarian
[35] = test system: OVCAR-5 ovarian
[36] = test system: OVCAR-8 ovarian
[37] = test system: PC-3 prostate
[38] = test system: RPMI-8226 leukemia
[39] = test system: RXF 393 renal
[40] = test system: SF-268 CNS
[41] = test system: SF-295 CNS
[42] = test system: SF-539 CNS
[43] = test system: SK-MEL-2 melanoma
[44] = test system: SK-MEL-28 melanoma
[45] = test system: SK-MEL-5 melanoma
[46] = test system: SK-OV-3 ovarian
[47] = test system: SN12C renal
[48] = test system: SNB-19 CNS
[49] = test system: SNB-75 CNS
[50] = test system: SR leukemia
[51] = test system: SW-620 colon
[52] = test system: T-47D breast
[53] = test system: TK-10 renal
[54] = test system: U251 CNS
[55] = test system: UACC-257 melanoma
[56] = test system: UACC-62 melanoma
[57] = test system: UO-31 renal
[58] = test system: EKVX NSCLC

## CC(C)C[C@H](NC(=O)Cn1cccc(CNC(=O)c2ccccc2)c1=O)B(O)O
[1]
  GI50: 1.06 µM
  TGI: > 61.5 µM
[2]
  GI50: 0.136 µM
  TGI: 0.706 µM
[3]
  GI50: 4.54 µM
  TGI: > 100 µM
[4]
  GI50: 0.626 µM
  TGI: > 100 µM
[5]
  GI50: 0.162 µM
  TGI: 1.54 µM
[6]
  GI50: 3.7 µM
  TGI: 44.9 µM
[7]
  GI50: 0.374 µM
  TGI: > 20.1 µM
[8]
  GI50: 1.65 µM
  TGI: 97.8 µM
[9]
  GI50: 0.734 µM
  TGI: 45.1 µM
[10]
  GI50: 0.893 µM
  TGI: 2.57 µM
[11]
  GI50: 0.337 µM
  TGI: 2.65 µM
[12]
  GI50: 4.7 µM
  TGI: 37.3 µM
[13]
  GI50: 0.653 µM
  TGI: > 100 µM
[14]
  GI50: 1.21 µM
  TGI: 6.38 µM
[15]
  GI50: 0.638 µM
  TGI: 4.61 µM
[16]
  GI50: 0.335 µM
[17]
  GI50: 0.352 µM
  TGI: 11.5 µM
[18]
  GI50: 4.01 µM
  TGI: 45.8 µM
[19]
  GI50: 1.3 µM
  TGI: > 100 µM
[20]
  GI50: 0.649 µM
  TGI: 3 µM
[21]
  GI50: 0.244 µM
  TGI: 0.811 µM
[22]
  GI50: 0.27 µM
  TGI: 1.42 µM
[23]
  GI50: 0.16 µM
  TGI: 1.88 µM
[24]
  GI50: 0.409 µM
  TGI: > 100 µM
[25]
  GI50: 0.567 µM
  TGI: 3.06 µM
[26]
  GI50: 0.158 µM
  TGI: 0.355 µM
[27]
  GI50: 0.289 µM
  TGI: > 100 µM
[28]
  GI50: 0.202 µM
  TGI: 0.457 µM
[29]
  GI50: 1.05 µM
  TGI: > 100 µM
[30]
  GI50: 2.65 µM
  TGI: 15.8 µM
[31]
  GI50: 0.377 µM
  TGI: 2.3 µM
[32]
  GI50: > 69.1 µM
  TGI: > 100 µM
[33]
  GI50: 0.214 µM
  TGI: 0.674 µM
[34]
  GI50: 0.897 µM
  TGI: > 77 µM
[35]
  GI50: 2.76 µM
  TGI: 38.9 µM
[36]
  GI50: 4.23 µM
  TGI: > 85.7 µM
[37]
  GI50: 3.08 µM
  TGI: > 59.1 µM
[38]
  GI50: 0.352 µM
[39]
  GI50: 0.316 µM
  TGI: 1.1 µM
[40]
  GI50: 0.4 µM
  TGI: 2.95 µM
[41]
  GI50: 0.442 µM
  TGI: 2.24 µM
[42]
  GI50: 0.133 µM
  TGI: 0.454 µM
[43]
  GI50: 0.384 µM
  TGI: 2.79 µM
[44]
  GI50: 0.207 µM
  TGI: 13 µM
[45]
  GI50: 0.158 µM
  TGI: 0.842 µM
[46]
  GI50: 1.2 µM
  TGI: 41 µM
[47]
  GI50: 0.811 µM
  TGI: 11.3 µM
[48]
  GI50: 0.495 µM
  TGI: > 100 µM
[49]
  GI50: 0.32 µM
  TGI: 2.33 µM
[50]
  GI50: 0.304 µM
  TGI: > 100 µM
[51]
  GI50: 0.345 µM
  TGI: 6.85 µM
[52]
  GI50: 0.335 µM
  TGI: 2.82 µM
[53]
  GI50: 0.55 µM
  TGI: 4.75 µM
[54]
  GI50: 0.517 µM
  TGI: 19.2 µM
[55]
  GI50: 0.505 µM
  TGI: 3.53 µM
[56]
  GI50: 0.486 µM
  TGI: 3.54 µM
[57]
  GI50: 4 µM
  TGI: 23 µM

## COc1ccc(Nc2ncnc3ccc(-c4cncc(NS(C)(=O)=O)c4)cc23)cc1Cl
[1]
  GI50: 2.99 µM
  TGI: 13 µM
[2]
  GI50: 1.8 µM
  TGI: 4.44 µM
[3]
  GI50: 5.18 µM
  TGI: 22.9 µM
[4]
  GI50: 4.92 µM
  TGI: > 100 µM
[5]
  GI50: 1.67 µM
  TGI: 7.12 µM
[7]
  GI50: 0.896 µM
  TGI: 10 µM
[8]
  GI50: 1.8 µM
  TGI: 4.47 µM
[9]
  GI50: 3.78 µM
  TGI: 15.2 µM
[58]
  GI50: 1.99 µM
  TGI: 6.82 µM
[10]
  GI50: 4.03 µM
  TGI: 15.4 µM
[11]
  GI50: 2.05 µM
  TGI: 5.69 µM
[12]
  GI50: 3.6 µM
  TGI: 14.1 µM
[13]
  GI50: 2.02 µM
  TGI: 6.72 µM
[14]
  GI50: 2.64 µM
  TGI: 22.6 µM
[15]
  GI50: 0.348 µM
  TGI: 4.62 µM
[16]
  GI50: 1.26 µM
  TGI: 5.18 µM
[17]
  GI50: 2.07 µM
  TGI: 6.93 µM
[18]
  GI50: 1.4 µM
  TGI: 4.46 µM
[19]
  GI50: 3.2 µM
  TGI: 18.7 µM
[20]
  GI50: 3.15 µM
  TGI: 11.7 µM
[21]
  GI50: 1.5 µM
  TGI: 4.28 µM
[22]
  GI50: 2.81 µM
  TGI: 13.6 µM
[23]
  GI50: 1.55 µM
  TGI: 11.2 µM
[24]
  GI50: 1.63 µM
  TGI: 8.01 µM
[25]
  GI50: 2.71 µM
  TGI: 15.3 µM
[26]
  GI50: 3.19 µM
  TGI: 15.3 µM
[27]
  GI50: 1.5 µM
  TGI: 4 µM
[28]
  GI50: 2.69 µM
  TGI: 18.1 µM
[29]
  GI50: 2.66 µM
  TGI: 15 µM
[30]
  GI50: 4.11 µM
  TGI: 17 µM
[31]
  GI50: 1.18 µM
  TGI: 4.08 µM
[32]
  GI50: 21.4 µM
  TGI: 81.5 µM
[33]
  GI50: 1.66 µM
  TGI: 4.78 µM
[34]
  GI50: 4.22 µM
  TGI: 83.1 µM
[35]
  GI50: 2.87 µM
  TGI: 29 µM
[36]
  GI50: 3.62 µM
  TGI: 16.5 µM
[37]
  GI50: 2.83 µM
  TGI: 16.6 µM
[38]
  GI50: 2.11 µM
  TGI: 4.9 µM
[39]
  GI50: 2.08 µM
  TGI: 5.63 µM
[40]
  GI50: 2.3 µM
  TGI: 16.4 µM
[41]
  GI50: 2.51 µM
  TGI: 10.1 µM
[42]
  GI50: 1.84 µM
  TGI: 7.72 µM
[43]
  GI50: 1.02 µM
  TGI: 2.67 µM
[44]
  GI50: 2.75 µM
  TGI: 18.4 µM
[45]
  GI50: 1.61 µM
  TGI: 3.21 µM
[46]
  GI50: 2.49 µM
  TGI: 6.93 µM
[47]
  GI50: 3.09 µM
  TGI: 18.7 µM
[48]
  GI50: 2.81 µM
  TGI: 24.4 µM
[49]
  GI50: 0.352 µM
  TGI: 6.37 µM
[50]
  GI50: 1.42 µM
  TGI: 5.86 µM
[51]
  GI50: 3.23 µM
  TGI: 12.4 µM
[52]
  GI50: 0.177 µM
  TGI: 1.61 µM
[54]
  GI50: 2.81 µM
  TGI: 13.6 µM
[55]
  GI50: 2.82 µM
  TGI: 14 µM
[56]
  GI50: 2.14 µM
  TGI: 8.31 µM
[57]
  GI50: 3.04 µM
  TGI: 22.5 µM

Reference: PubChem BioAssay (NCI)
